The record followed here is PubChem BioAssay (NCI).

For orientation: TGI means the concentration at which net growth stops. A low value points to greater sensitivity of the cells. As a reminder, the GI50 is the concentration giving 50% growth inhibition.

Several values for one entry are separate records, joined by “and”; a condition that tells them apart may be missing. Equal entries are not always repeated.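 Five concentrations, 48 hours, 96-well plates. The concentration for 50% growth inhibition is given as GI50. TGI: total growth inhibition.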

Among the test systems are CCRF-CEM leukemia; COLO 205 colon; EKVX NSCLC; K-562 leukemia; OVCAR-4 ovarian; SF-295 CNS; SNB-19 CNS; UACC-257 melanoma; SK-MEL-5 melanoma; RPMI-8226 leukemia.
What all share (experiment): DTP human tumour cell line panel, 48 h

Regarding `CC(=O)Nc1ccc(C2CC(c3ccc([N+](=O)[O-])cc3)=Nc3ccccc3S2)cc1` (centres undefined), the TGI is 56 µM with CCRF-CEM leukemia; > 100 µM in the assay with COLO 205 colon; > 100 µM in the assay with EKVX NSCLC; 42 µM in the assay with K-562 leukemia; 42.2 µM with OVCAR-4 ovarian; 35 µM with SF-295 CNS. The TGI worked out at 62.4 µM in the assay with SNB-19 CNS and 29.2 µM with UACC-257 melanoma.

As for `N/N=C(/Cc1ccccc1)NNO`, the TGI in the assay on CCRF-CEM leukemia, in the assay with COLO 205 colon, in the assay on EKVX NSCLC, in the assay with K-562 leukemia, in the assay with OVCAR-4 ovarian and with SF-295 CNS was > 100 µM in each case. Moreover, the TGI with SK-MEL-5 melanoma, in the assay on SNB-19 CNS and in the assay with UACC-257 melanoma was > 100 µM each time.

`CN1CCCC2[C@@H]3CCC4c5nonc5CC[C@]4(C)C3CC[C@@]21C` (some centres undefined): the TGI in the assay on COLO 205 colon, in the assay on EKVX NSCLC, with K-562 leukemia, in the assay on OVCAR-4 ovarian, with RPMI-8226 leukemia and with SF-295 CNS was > 100 µM throughout. Also, the TGI with SK-MEL-5 melanoma, with SNB-19 CNS and with UACC-257 melanoma was > 100 µM in each case.

For `Cc1ccc(C2=CC(=O)c3ccccc3C2=O)n1-c1ccccc1`, the TGI with CCRF-CEM leukemia was 84.5 µM; in the assay with COLO 205 colon it was > 100 µM; in the assay with EKVX NSCLC it was > 100 µM; in the assay with K-562 leukemia, > 100 µM; in the assay with OVCAR-4 ovarian it was 96.6 µM; in the assay with RPMI-8226 leukemia, > 100 µM. Moreover, the TGI in the assay with SF-295 CNS, with SK-MEL-5 melanoma and in the assay with SNB-19 CNS was > 100 µM each time.

As for `COc1cc(O)ccc1C(=S)SC`, the TGI with COLO 205 colon is > 100 µM; in the assay with EKVX NSCLC, 46.3 µM; with K-562 leukemia it was > 100 µM; in the assay with OVCAR-4 ovarian, > 100 µM; in the assay on RPMI-8226 leukemia, 55.6 µM; in the assay on SF-295 CNS, > 100 µM. The TGI in the assay on SK-MEL-5 melanoma, with SNB-19 CNS and in the assay on UACC-257 melanoma was > 100 µM each time.

As for `O=S(=O)(NC1=NCCN1C(=S)SN1CCn2c1nsc2=S)c1ccc(Cl)cc1`, the GI50 is 4.36 µM with COLO 205 colon; 13.2 µM in the assay on EKVX NSCLC; 5.21 µM in the assay on K-562 leukemia; 9.6 µM in the assay on OVCAR-4 ovarian; 4.33 µM with RPMI-8226 leukemia; 16.7 µM with SF-295 CNS. Moreover, the GI50 with SK-MEL-5 melanoma is 8.99 µM; in the assay with SNB-19 CNS it was 14.5 µM; with UACC-257 melanoma, 10.8 µM. For the same compound, the TGI in the assay on COLO 205 colon is 14.8 µM; in the assay on EKVX NSCLC, 30.6 µM; in the assay with K-562 leukemia it was > 100 µM; in the assay with OVCAR-4 ovarian it was 44.2 µM; in the assay on RPMI-8226 leukemia it was > 100 µM; with SF-295 CNS it was 34.8 µM. The TGI was determined as 21.7 µM in the assay with SK-MEL-5 melanoma, 36.4 µM in the assay with SNB-19 CNS and 29.4 µM in the assay with UACC-257 melanoma.

`Cc1n[nH]c2ccccc2c1=O`: the TGI in the assay on COLO 205 colon, in the assay on EKVX NSCLC, in the assay on K-562 leukemia, in the assay with OVCAR-4 ovarian, with RPMI-8226 leukemia and in the assay on SF-295 CNS was > 100 µM throughout. For the same compound, the TGI with SK-MEL-5 melanoma, in the assay on SNB-19 CNS and in the assay on UACC-257 melanoma was > 100 µM in each case.

On to `COc1ccc(-c2nc3ccccc3s2)cc1OC`, for which the TGI in the assay on CCRF-CEM leukemia was > 100 µM; in the assay with COLO 205 colon, > 100 µM; in the assay on K-562 leukemia it was > 100 µM; in the assay with OVCAR-4 ovarian, > 100 µM; with RPMI-8226 leukemia it was > 100 µM; with SF-295 CNS, 88.2 µM. In addition, the TGI was 39.1 µM in the assay on SK-MEL-5 melanoma, 28.3 µM in the assay with SNB-19 CNS and > 100 µM with UACC-257 melanoma.

Consider `O=c1c2cccnc2ncn1CCCN1CCCCC1`, for which the TGI in the assay on CCRF-CEM leukemia, in the assay on COLO 205 colon, with EKVX NSCLC, with K-562 leukemia, in the assay with OVCAR-4 ovarian and with SF-295 CNS was > 100 µM in each case. Further, the TGI in the assay with SK-MEL-5 melanoma and with SNB-19 CNS was > 100 µM in each case.

Regarding `OCC(O)C(O)C(O)C(/C=N\Nc1ncnc2c(Br)cc(Br)cc12)=N/Nc1ncnc2c(Br)cc(Br)cc12` (centres undefined), the TGI was 13 µM and 22 µM in the assay on COLO 205 colon; 26.9 µM and > 100 µM with K-562 leukemia; > 100 µM with RPMI-8226 leukemia; 16.4 µM and 18.7 µM in the assay on SK-MEL-5 melanoma; 33.2 µM and > 100 µM in the assay with UACC-257 melanoma. In addition, the GI50 with EKVX NSCLC was 1.88 µM and 4.49 µM; with RPMI-8226 leukemia, 19.6 µM; in the assay on SF-295 CNS it was 2.46 µM and 10.9 µM.

In the case of `CCOc1c(Br)cc(Br)cc1C=C(C#N)C#N`, the TGI in the assay with CCRF-CEM leukemia, in the assay with COLO 205 colon, in the assay on EKVX NSCLC, with K-562 leukemia, in the assay with OVCAR-4 ovarian and with RPMI-8226 leukemia was > 10 µM each time. In addition, the TGI in the assay with SF-295 CNS, in the assay on SK-MEL-5 melanoma and in the assay on SNB-19 CNS was > 10 µM in each case.

Consider `Cc1cccc(N2C(=O)/C(=C/C(Cl)=C/c3ccc([N+](=O)[O-])cc3)SC2=S)c1C`, for which the GI50 in the assay on CCRF-CEM leukemia was 0.741 µM; with COLO 205 colon it was 1.81 µM; in the assay with EKVX NSCLC it was 2.73 µM; with K-562 leukemia it was 0.793 µM; with OVCAR-4 ovarian it was 1.46 µM; with RPMI-8226 leukemia, 0.439 µM. The GI50 in the assay on SF-295 CNS is 2.28 µM; with SK-MEL-5 melanoma, 1.49 µM; in the assay with SNB-19 CNS, 2.9 µM. Further, the TGI in the assay on CCRF-CEM leukemia is > 89.5 µM; in the assay with COLO 205 colon it was 5.08 µM; in the assay on EKVX NSCLC it was > 100 µM; in the assay on K-562 leukemia, > 100 µM; in the assay with OVCAR-4 ovarian it was > 100 µM; in the assay on RPMI-8226 leukemia, 2.04 µM. Moreover, the TGI was 5.25 µM in the assay with SF-295 CNS, 2.91 µM with SK-MEL-5 melanoma and > 100 µM with SNB-19 CNS.

Consider `OCc1ccc(N(Cc2ccc(F)cc2)Cc2ccc(F)cc2)cc1Cl`, for which the GI50 with CCRF-CEM leukemia was 13.1 µM; in the assay on COLO 205 colon it was 11.7 µM; in the assay on K-562 leukemia, 4.93 µM; with OVCAR-4 ovarian, 3.01 µM; in the assay on RPMI-8226 leukemia it was 8.44 µM; with SK-MEL-5 melanoma, 15.3 µM. Besides, the GI50 was 12.9 µM in the assay with SNB-19 CNS and 3.74 µM with UACC-257 melanoma. Besides, the TGI in the assay with CCRF-CEM leukemia worked out at 33.9 µM; in the assay on COLO 205 colon it was 24.4 µM; in the assay on K-562 leukemia, 23.1 µM; with OVCAR-4 ovarian, 14.7 µM; in the assay on RPMI-8226 leukemia, 30.4 µM; with SK-MEL-5 melanoma it was 28.9 µM. Moreover, the results for the TGI in the assay with SNB-19 CNS and in the assay on UACC-257 melanoma were 31.6 µM and 15.6 µM, respectively.
